Source: US20250099491A1, “PREVENTION OR TREATMENT OF CARDIOVASCULAR DISEASES WITH HIGH PENETRATION PRODRUGS OF ASPIRIN AND OTHER NSAIDS” (Techfields Inc., priority 2022, published 2025)
Like-named read-outs stand apart in the source and are kept apart here.

What was measured:
[1] = rabbit
[2] = test system: rats with acute ischemia induced by Middle Cerebral Artery Occlusion (MCAO); assay: Example 18: acute ischemia induced by MCAO in rats; type: in vivo, rat; conditions: for infarct volume: Day 14 after MCAO, TTC staining, mean±SEM; for reduction of infarct volumes: comparators: oral 60 mg/kg bid, Edaravone 3 mg/kg i.v. q.d.
[3] = test system: rats with acute ischemia induced by Middle Cerebral Artery Occlusion (MCAO); assay: Example 15: acute ischemia induced by MCAO in rats; type: in vivo, rat; conditions: for infarct volume: Day 14 after MCAO, TTC staining, mean±SEM; for reduction of infarct volumes: comparators: oral 60 mg/kg bid, Edaravone 3 mg/kg i.v. q.d.
[4] = test system: rats with acute ischemia induced by Middle Cerebral Artery Occlusion (MCAO); assay: Example 17: acute ischemia induced by MCAO in rats; type: in vivo, rat; conditions: for infarct volume: Day 14 after MCAO, TTC staining, mean±SEM; for reduction of infarct volumes: comparators: oral 60 mg/kg bid, Edaravone 3 mg/kg i.v. q.d.
[5] = test system: rats with acute ischemia induced by Middle Cerebral Artery Occlusion (MCAO); assay: Example 16: acute ischemia induced by MCAO in rats; type: in vivo, rat; conditions: for infarct volume: Day 14 after MCAO, TTC staining, mean±SEM; for reduction of infarct volumes: comparators: oral 60 mg/kg bid, Edaravone 3 mg/kg i.v. q.d.; for mortalities: deaths of animals in group
[6] = test system: rats with acute ischemia induced by Middle Cerebral Artery Occlusion (MCAO); assay: Example 14: acute ischemia induced by middle cerebral artery occlusion (MCAO) in rats; type: in vivo, rat; conditions: for infarct volume: Day 14 after MCAO, TTC staining, mean±SEM; for reduction of infarct volumes: comparators: oral 60 mg/kg bid, Edaravone 3 mg/kg i.v. q.d.
[7] = test system: middle cerebral artery (MCA) thrombosis model of monkeys; assay: Example 19: middle cerebral artery (MCA) thrombosis model of monkeys; conditions: aspirin 20 mg/kg/time oral, twice a day
Method: Aspirin was administered orally by gavage using a nasal catheter with a disposal syringe. The catheter was inserted into the stomach through the mouth. The treatment was once per day of MCA thrombosis (day 0), twice per day for 27 days.
The monkeys that had been fastened for at least 12 h were anesthetized with intramuscular administration of ketamine hydrochloride (20 mg/kg), and placed on an operation-bed. Anesthesia was continued with 1.0% isoflurane in O2 gas until 30 min. The inhalation anesthesia was performed with anesthesia machines (SN23402, Hallowell engineering and manufacturing corporation, USA) and respirators (SN23402, Hallowell engineering and manufacturing corporation, USA), and placed on an operation-bed. During anesthesia, body temperature of the animals (rectal temperature) was controlled between 37.0±0.5° C. by heating mattresses (XMTA-7000, Delixi Electric., Ltd.).
Under anesthesia, the left eye was enucleated using a bipolar coagulation device (Valleylab Force 1C, USA). A craniotomy was then performed supralaterally to the left side of the optic nerve. The next day animals were anesthetized with ketamine hydrochloride (20 mg/kg) and the dura and subarachnoid membrane were opened. MCA thrombosis was induced by photochemical reaction. The proximal part of the main MCA trunk. was irradiated with green light wave length 532 nm achieved by use of a xenon lamp (GL532T3-100FC, Shanghai Laser& Optics Century Col., Ltd.). The irradiation was directed by a 3-mm diameteroptic fiber mounted on a micromanipulator. Irradiation was started and rose bengal 20 mg/kg was injected intravenously. Photoirradiation was continued for a 30 min. The dura was then covered with a moist gelatin sponge.
Neurological deficits (see Table 3) were assessed 1, 3, 5, 7, 14 and 28 days after the onset of MCA thrombosis (day 0) in a blind manner. The neurological deficits was scored on consciousness, sensory system, motor system and skeletal muscle coordination, and the total neurological deficit score was calculated by summing the scores of consciousness, sensory system, motor system and skeletal muscle coordination.
The survival monkeys were deeply anesthetized with pentobarbital sodium (35 mg/kg, i.v.) 28 days after the onset of MCA thrombosis. After cutting the atriums of heart, 200 mL of heparinized physiological saline (10 U/mL) was allowed to perfuse the brain via the common carotid arteries, and followed by perfusion of 200 mL of 10% formalin neutral buffer solution. The whole brain was removed, and then was put in pathology sample preservation packs containing 10% formalin neutral buffer solution. For each brain sample, the coronal sections (thickness: 7-8 μm) per site were prepared at 10 sites at 4-mm intervals. Slices per site were each stained with H & E reagent.
Measurement of cerebral infarct lesions was carried out in a blind manner. The infarct lesions in the ischemic side are defined as a necrotic portion compared with that in the contralateral side. The infarcted area of left cerebral hemisphere (A) in the cross-sections was traced and measured using a computerized image analysis system (image J).
When the infarct size of 2 serial section was made into D and D′, the infarcted volume using the thickness (4 mm) of a section is measured in the following formula:
Total infarcted volume is calculated by summing the infarcted volume of the 10 serial sections.

[8] = test system: myocardial infarction in minipigs; assay: Example 20: myocardial infarction efficacy study in minipigs (circumflex coronary artery thrombosis); type: in vivo, minipig; conditions: aspirin 20 mg/kg/time oral, twice a day
Method: Total 24 male minipigs were used for this study. […] The minipigs were already quarantined and acclimated. Before animal being transferred from holding colony, a physical examination was performed and the acceptability of the animals for the study was evaluated by veterinary. […] [table] […] Under anesthesia, thoracotomy was carried out and the circumflex coronary artery of the heart was exposed. The circumflex coronary artery thrombosis was induced by photochemical reaction. […] Photoirradiation was continued for a 30 min. […] After cutting the femoral artery, thoracotomy was carried out and the heart was removed. […] TTC regent for 5 min. After staining with TTC reagent, the photograph of the heart 5 blocks was taken. All blocks were immersed in 10% formalin neutral buffer solution. The 2nd block appeared large necrotic area was cut sections (thickness: 7-8 μm). Slice was stained with H & E reagent. […] The infarct lesions were defined as a necrotic portion of TTC stained blocks. […] The histopathological alteration (necrosis, inflammation, granulation, etc.) of myocardial infarction was examined using H & E stained slides.

[9] = high dose 60 mg/kg topical bid 14 days
[10] = high dose group compared to vehicle group
[11] = high dose groups vs vehicle group
[12] = low dose 15 mg/kg topical bid 14 days
[13] = low, middle and high dose groups, Day 5-14, vs vehicle group by t-test
[14] = middle dose 30 mg/kg topical bid 14 days

Compound	The cumulative amount of test compounds ([1]; 1 h) [mg]	The cumulative amount of test compounds ([1]; 2 h) [mg]	The cumulative amount of test compounds ([1]; 4 h) [mg]	The cumulative amount of test compounds ([1]; 8 h) [mg]	other results
CCN(CC)CCOC(=O)c1cc(-c2ccc(F)cc2F)ccc1OC(C)=O.Cl [Compound-7, 2-(diethylamino)ethyl 2′,4′-difluoro-4-acetoxy-[1,1′-biphenyl]-3-carboxylate hydrochloride]	0.53	1.07	2.16	4.33	–
Cl.O=C(OCC1CCCN1)c1cc(-c2ccc(F)cc2F)ccc1O (stereo not shown) [Compound-11, (pyrrolidin-2-yl)methyl 2′,4′-difluoro-4-hydroxyl-[1,1′-biphenyl]-3-carboxylate hydrochloride]	0.43	0.99	2.01	4.05	–
O=C(Oc1ccccc1C(=O)O)c1ccccc1O [Compound-18, 2-(2-hydroxybenzoyl)oxybenzoic acid, reference compound]	0.000	0.000	0.001	0.001	–
Cl.O=C(Oc1ccccc1C(=O)OCC1CCCN1)c1ccccc1O (stereo not shown) [Compound-17, (pyrrolidin-2-yl)methyl 2-(2-hydroxybenzoyl)oxybenzoate hydrochloride]	0.32	0.68	1.39	2.97	–
CC1=NN(c2ccccc2)C(=O)C1 [Edaravone, reference compound]	–	–	–	–	infarct volume ([2]; 3 mg/kg i.v. q.d. 14 days): 41.33%±2.792; reduction of infarct volumes [2]: little reduction; infarct volume ([3]; 3 mg/kg i.v. q.d. 14 days): 39.94%±2.256; reduction of infarct volumes [3]: little reduction; infarct volume ([4]; 3 mg/kg i.v. q.d. 14 days): 40.35%±2.078; reduction of infarct volumes [4]: little reduction; infarct volume ([5]; 3 mg/kg i.v. q.d. 14 days): 39.27%±2.513; reduction of infarct volumes [5]: little reduction; infarct volume ([6]; 3 mg/kg i.v. q.d. 14 days): 38.07%±2.031; reduction of infarct volumes [6]: little reduction
CCN(CC)CCOC(=O)c1ccccc1OC(=O)c1ccccc1OC(C)=O.Cl [Compound-13, 2-(diethylamino)ethyl 2-(2-acetoxybenzoyl)oxybenzoate hydrochloride]	0.46	0.97	1.99	3.89	–
CC(=O)Oc1ccc(-c2ccc(F)cc2F)cc1C(=O)OCC1CCCN1.Cl (stereo not shown) [Compound-8, (pyrrolidin-2-yl)methyl 2′,4′-difluoro-4-acetoxy-[1,1′-biphenyl]-3-carboxylate hydrochloride]	0.45	0.98	2.02	4.11	infarct volume [4, 9]: 33.53%±1.986; neuroprotective effect on brain ischemic injury [4, 10]: good neuroprotective effect; neurological deficit scores [4, 11]: show differences significantly; infarct volume [4, 12]: 37.52%±2.789; body weight [4, 13]: increased; infarct volume [4, 14]: 35.02%±2.827
(pyrrolidin-2-yl)methyl acetoxybenzoate hydrochloride [Compound-2]	–	–	–	–	mortalities ([5]; high dose 60 mg/kg topical bid): 0 of 25; infarct volume [5, 12]: 33.11%±2.212; neuroprotective effect on brain ischemic injury ([5]; low, middle and high dose groups compared to vehicle group): good neuroprotective effect; neurological deficit scores ([5]; low, middle and high dose groups vs vehicle group): show differences significantly; body weight [5, 13]: increased; infarct volume [5, 14]: 27.03%±2.123; mortalities ([5]; middle dose 30 mg/kg topical bid): 0 of 25
CC(=O)Oc1ccccc1C(=O)O [Compound-3, Aspirin]	0.000	0.001	0.002	0.003	infarct volume ([7]; Day 28 after MCA thrombosis): 1901 mm^3; Mortality rate [7]: 1/5; hemorrhage in the penumbra area [7]: showed hemorrhage; liquefaction in the infarct area (histopathology) [7]: moderate; neurological deficits ([7]; until 28 days after MCA thrombosis): tended to show slight recovery; degeneration of myocardium and myocardial necrosis (histopathology) [8]: moderate; infarct volume (myocardial) ([8]; 28 days after MCA thrombosis): 431 mm^3; infarct volume ([5]; 60 mg/kg oral bid 14 days): 37.99%±1.985; reduction of infarct volumes [5]: little reduction; infarct volume ([6]; 60 mg/kg oral bid 14 days): 36.27%±2.123; reduction of infarct volumes [6]: little reduction
CCN(CC)CCOC(=O)c1ccccc1O.Cl [Compound-4, 2-(diethylamino)ethyl hydroxybenzoate hydrochloride]	–	–	–	–	infarct volume [3, 9]: 34.56%±2.563; neuroprotective effect on brain ischemic injury [3, 10]: good neuroprotective effect; neurological deficit scores [3, 11]: show differences significantly; infarct volume [3, 12]: 37.01%±2.053; body weight [3, 13]: increased; infarct volume [3, 14]: 35.77%±1.875
O=C(O)c1ccccc1O [Compound-6, Salicylic acid, reference compound]	0.000	0.001	0.002	0.002	infarct volume ([3]; 60 mg/kg oral bid 14 days): 37.47%±2.856; reduction of infarct volumes [3]: little reduction
CC(=O)Oc1ccc(-c2ccc(F)cc2F)cc1C(=O)O [Compound-9, 2′,4′-difluoro-4-acetoxy-[1,1′-biphenyl]-3-carboxylic acid, reference compound]	0.000	0.000	0.001	0.002	infarct volume ([4]; 60 mg/kg oral bid 14 days): 38.95%±2.176; reduction of infarct volumes [4]: little reduction
CCN(CC)CCOC(=O)c1ccccc1OC(=O)c1ccccc1O.Cl [Compound-16, 2-(diethylamino)ethyl 2-(2-hydroxybenzoyl)oxybenzoate hydrochloride]	0.37	0.87	1.71	3.56	–
CC(=O)Oc1ccccc1C(=O)Oc1ccccc1C(=O)O [Compound-15, 2-(2-acetoxybenzoyl)oxybenzoic acid, reference compound]	0.000	0.000	0.001	0.001	infarct volume ([2]; 60 mg/kg oral bid 14 days): 39.25%±2.981; reduction of infarct volumes [2]: little reduction
CCN(CC)CCOC(=O)c1cc(-c2ccc(F)cc2F)ccc1O.Cl [Compound-10, 2-(diethylamino)ethyl 2′,4′-difluoro-4-hydroxyl-[1,1′-biphenyl]-3-carboxylate hydrochloride]	0.49	1.03	2.12	4.39	–
O=C(O)c1cc(-c2ccc(F)cc2F)ccc1O [Compound-12, 2′,4′-difluoro-4-hydroxyl-[1,1′-biphenyl]-3-carboxylic acid, reference compound]	0.000	0.001	0.001	0.003	–
CC(=O)Oc1ccccc1C(=O)Oc1ccccc1C(=O)OCC1CCCN1.Cl (stereo not shown) [Compound-14, (pyrrolidin-2-yl)methyl 2-(2-acetoxybenzoyl)oxybenzoate hydrochloride]	0.37	0.84	1.82	3.69	infarct volume [2, 9]: 32.98%±2.546; mortalities ([2]; high dose 60 mg/kg topical bid, deaths of animals in group): 0 of 25; neuroprotective effect on brain ischemic injury [2, 10]: good neuroprotective effect; neurological deficit scores [2, 11]: show differences significantly; infarct volume [2, 12]: 36.87%±2.265; body weight [2, 13]: increased; infarct volume [2, 14]: 35.39%±2.479
